Values joined by “and” are separate entries in the source; they are usually repeats but may differ in a detail not shown here. Equal entries are not always repeated. Where two headings read alike, the source gives them in different places.
Assays:
human α-thrombin = human α-thrombin (Homo sapiens, UniProt P00734); assay: Protease inhibition, Ki for human α-thrombin (fluorogenic substrate Z-Gly-Gly-Arg-AMC); assay type: biochemical; settings: for Human alpha thrombin inhibition, slope normalized to DMSO: replicates R1-R3
Protocol: (§1) The inhibition constants (Ki) of cyclic peptides were calculated by measuring thrombin inhibition in the presence of different concentrations of the cyclic peptides. […] Human α-thrombin (Molecular Innovations) and rat α-thrombin (Molecular Innovations) were used at final concentrations of 2 nM and 3 nM, respectively, and fluorogenic substrate (Z-Gly-Gly-Arg-AMC, Bachem) was used at a concentration of 50 μM. Enzymatic activity was determined by measuring fluorescent gain on a Tecan Infinite M200 Pro microplate reader (excitation: 360 nm, emission: 465 nm) or a PHERAstar FSX microplate reader (excitation: 380 nm, emission: 440 nm) for 30 min at 25 °C with a fluorescent readout every 3 min. The two instruments were controlled with Tecan Infinite M200 Pro instrument software (iControl, version 1.12) and PHERAstar FSX software (version 5.70, edition 8), respectively. Protease inhibition was calculated by comparing the enzymatic activity to a control without cyclic peptide.
(§2) Half maximal inhibitory concentration (IC50) values were determined using a four-parameter logistic regression model in GraphPad Prism 9 to fit sigmoidal curves to the acquired data points according to equation (2) below.2 y=b+a−b/1+10^(logIC50−x)p where a and b represent the measured inhibition maximum and minimum, respectively; x is the logarithm of peptide concentration; y is the thrombin activity compared to a control without the cyclic peptide; and p is the Hill coefficient.
(§3) Ki values were calculated using the IC50 and the Cheng–Prusoff equation (equation (3)).3 Ki=IC50/1+S0/Km where Km is the Michaelis–Menten constant of the enzyme for the substrate used in the assay, and [S]0 is the initial substrate concentration.

[1] = Passive artificial membrane permeability (PAMPA);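 for Permeability% Average: top well sample relative to theoretical equilibrium sample by TIC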
rat α-thrombin = molecular target: T1, rat α-thrombin (Rattus norvegicus, UniProt P18292); assay: Protease inhibition, Ki for rat α-thrombin (fluorogenic substrate Z-Gly-Gly-Arg-AMC); assay type: biochemical; settings: for Rat alpha thrombin inhibition, slope normalized to DMSO: replicates R1-R3
T1 construct: rat α-thrombin (Molecular Innovations) were used at final concentrations of 2 nM and 3 nM; purchased Molecular Innovations
Protocol: as §1, §2, §3

[2] = peptide concentration 1.00E+02 uM
[3] = peptide concentration 1.19E-05 uM
[4] = peptide concentration 1.22E-02 uM
[5] = peptide concentration 1.25E+01 uM
[6] = peptide concentration 1.53E-03 uM
[7] = peptide concentration 1.56E+00 uM
[8] = peptide concentration 1.91E-04 uM
[9] = peptide concentration 1.95E-01 uM
[10] = peptide concentration 2.38E-05 uM
[11] = peptide concentration 2.44E-02 uM
[12] = peptide concentration 2.50E+01 uM
[13] = peptide concentration 3.05E-03 uM
[14] = peptide concentration 3.12E+00 uM
[15] = peptide concentration 3.81E-04 uM
[16] = peptide concentration 3.91E-01 uM
[17] = peptide concentration 4.77E-05 uM
[18] = peptide concentration 4.88E-02 uM
[19] = peptide concentration 5.00E+01 uM
[20] = peptide concentration 6.10E-03 uM
[21] = peptide concentration 6.25E+00 uM
[22] = peptide concentration 7.63E-04 uM
[23] = peptide concentration 7.81E-01 uM
[24] = peptide concentration 9.54E-05 uM
[25] = peptide concentration 9.77E-02 uM

O=C1C[C@H]2CCCN2C(=O)[C@H](Cc2ccccc2)NC(=O)[C@@H](NC(=O)c2ccc(Cl)s2)CCC=CCCCN1 [compound 41]
Ki (human α-thrombin; average of R1-R3, read-out: Human alpha thrombin inhibition, Ki Average): 1570 nM | Human alpha thrombin inhibition, slope normalized to DMSO (human α-thrombin; [2]): 9.8 and 10.5 and 10.6 | Human alpha thrombin inhibition, slope normalized to DMSO (human α-thrombin; [3]): 108.3 and 123.2 and 86.4 | Human alpha thrombin inhibition, slope normalized to DMSO (human α-thrombin; [4]): 81.6 and 60.4 and 71.9 | Human alpha thrombin inhibition, slope normalized to DMSO (human α-thrombin; [5]): 16.2 and 18.0 and 13.2 | Human alpha thrombin inhibition, slope normalized to DMSO (human α-thrombin; [6]): 102.7 and 105.3 and 96.0 | Human alpha thrombin inhibition, slope normalized to DMSO (human α-thrombin; [7]): 60.1 and 45.1 and 57.4 | Human alpha thrombin inhibition, slope normalized to DMSO (human α-thrombin; [8]): 110.2 and 100.0 and 95.6 | Human alpha thrombin inhibition, slope normalized to DMSO (human α-thrombin; [9]): 90.5 and 54.5 and 66.4 | Human alpha thrombin inhibition, slope normalized to DMSO (human α-thrombin; [10]): 111.1 and 102.0 and 98.3 | Human alpha thrombin inhibition, slope normalized to DMSO (human α-thrombin; [11]): 60.0 and 83.9 and 99.7 | Human alpha thrombin inhibition, slope normalized to DMSO (human α-thrombin; [12]): 16.8 and 4.9 and 12.0 | Human alpha thrombin inhibition, slope normalized to DMSO (human α-thrombin; [13]): 65.1 and 103.9 and 92.0 | Human alpha thrombin inhibition, slope normalized to DMSO (human α-thrombin; [14]): 47.1 and 40.3 and 37.6 | Human alpha thrombin inhibition, slope normalized to DMSO (human α-thrombin; [15]): 113.9 and 97.1 and 98.1 | Human alpha thrombin inhibition, slope normalized to DMSO (human α-thrombin; [16]): 59.1 and 81.1 and 60.5 | Human alpha thrombin inhibition, slope normalized to DMSO (human α-thrombin; [17]): 106.6 and 104.5 and 98.0 | Human alpha thrombin inhibition, slope normalized to DMSO (human α-thrombin; [18]): 96.4 and 58.3 and 94.8 | Human alpha thrombin inhibition, slope normalized to DMSO (human α-thrombin; [19]): 14.2 and 14.0 and 12.9 | Human alpha thrombin inhibition, slope normalized to DMSO (human α-thrombin; [20]): 78.1 and 71.3 and 72.1 | Human alpha thrombin inhibition, slope normalized to DMSO (human α-thrombin; [21]): 15.4 and 28.4 and 22.2 | Human alpha thrombin inhibition, slope normalized to DMSO (human α-thrombin; [22]): 61.4 and 105.9 and 50.7 | Human alpha thrombin inhibition, slope normalized to DMSO (human α-thrombin; [23]): 75.8 and 62.9 and 64.9 | Human alpha thrombin inhibition, slope normalized to DMSO (human α-thrombin; [24]): 104.3 and 61.9 and 103.5 | Human alpha thrombin inhibition, slope normalized to DMSO (human α-thrombin; [25]): 84.6 and 105.9 and 85.2 | IC50 (human α-thrombin; single replicates R1-R3, read-out: Human alpha thrombin inhibition, IC50): 2700 nM and 1730 nM and 1690 nM | Ki (human α-thrombin; single replicates R1-R3, read-out: Human alpha thrombin inhibition, Ki): 2.08 µM (2×) and 1.34 µM (2×) and 1.3 µM (2×) | PAMPA permeability: % permeability ([1]; 50 μM, 12–18 h, acceptor concentration relative to equilibrium): 64 ± 11% | Permeability% (single replicates R1–R3) ([1]; 50 μM, 13 h (Fig. 5d)): 76.34% and 63.06% and 53.71% | Permeability% Average ([1]; 50 μM, 13 h (Fig. 5d)): 64.4% | Papp at 50 μM ([1]; PAMPA, pH 7.4): 9.33 ×10⁻⁶ cm/s | Ki (rat α-thrombin; average of R1-R3, read-out: Rat alpha thrombin inhibition, Ki Average): 180 nM | Rat alpha thrombin inhibition, slope normalized to DMSO (rat α-thrombin; [2]): 5.3 and 5.7 and 4.1 | Rat alpha thrombin inhibition, slope normalized to DMSO (rat α-thrombin; [3]): 101.7 and 102.1 and 101.8 | Rat alpha thrombin inhibition, slope normalized to DMSO (rat α-thrombin; [4]): 87.5 and 92.0 and 84.9 | Rat alpha thrombin inhibition, slope normalized to DMSO (rat α-thrombin; [5]): 9.2 and 8.7 and 7.8 | Rat alpha thrombin inhibition, slope normalized to DMSO (rat α-thrombin; [6]): 94.8 and 97.7 and 92.4 | Rat alpha thrombin inhibition, slope normalized to DMSO (rat α-thrombin; [7]): 25.0 and 25.1 and 31.0 | Rat alpha thrombin inhibition, slope normalized to DMSO (rat α-thrombin; [8]): 106.1 and 99.6 and 88.4 | Rat alpha thrombin inhibition, slope normalized to DMSO (rat α-thrombin; [9]): 69.0 and 50.2 and 49.8 | Rat alpha thrombin inhibition, slope normalized to DMSO (rat α-thrombin; [10]): 103.2 and 98.1 and 102.8 | Rat alpha thrombin inhibition, slope normalized to DMSO (rat α-thrombin; [11]): 92.3 and 89.1 and 86.1 | Rat alpha thrombin inhibition, slope normalized to DMSO (rat α-thrombin; [12]): 4.2 and 6.8 and 8.8 | Rat alpha thrombin inhibition, slope normalized to DMSO (rat α-thrombin; [13]): 99.2 and 99.8 and 88.1 | Rat alpha thrombin inhibition, slope normalized to DMSO (rat α-thrombin; [14]): 8.2 and 23.7 and 18.2 | Rat alpha thrombin inhibition, slope normalized to DMSO (rat α-thrombin; [15]): 107.3 and 92.0 and 81.7 | Rat alpha thrombin inhibition, slope normalized to DMSO (rat α-thrombin; [16]): 38.0 and 46.4 and 45.2 | Rat alpha thrombin inhibition, slope normalized to DMSO (rat α-thrombin; [17]): 102.3 and 101.4 and 86.4 | Rat alpha thrombin inhibition, slope normalized to DMSO (rat α-thrombin; [18]): 83.5 and 87.2 and 79.0 | Rat alpha thrombin inhibition, slope normalized to DMSO (rat α-thrombin; [19]): 3.7 and 8.5 and 7.9 | Rat alpha thrombin inhibition, slope normalized to DMSO (rat α-thrombin; [20]): 92.6 and 94.8 and 84.9 | Rat alpha thrombin inhibition, slope normalized to DMSO (rat α-thrombin; [21]): 13.6 and 12.8 and 13.7 | Rat alpha thrombin inhibition, slope normalized to DMSO (rat α-thrombin; [22]): 102.3 and 100.6 and 67.7 | Rat alpha thrombin inhibition, slope normalized to DMSO (rat α-thrombin; [23]): 42.8 and 23.4 and 43.3 | Rat alpha thrombin inhibition, slope normalized to DMSO (rat α-thrombin; [24]): 92.9 and 92.2 and 96.6 | Rat alpha thrombin inhibition, slope normalized to DMSO (rat α-thrombin; [25]): 73.2 and 69.4 and 67.8 | IC50 (rat α-thrombin; single replicates R1-R3, read-out: Rat alpha thrombin inhibition, IC50): 326 nM and 228 nM and 420 nM | Ki (rat α-thrombin; single replicates R1-R3, read-out: Rat alpha thrombin inhibition, Ki): 180 nM (2×) and 126 nM (2×) and 232 nM (2×)

Reference: publication PMC11062899, “De novo development of small cyclic peptides that are orally bioavailable” (Nature Chemical Biology, 2023)
